Here are results for two compounds from US20240307401A1, “TREATMENT OF JAK-INHIBITION-RESPONSIVE DISORDERS WITH PRODRUGS OF JAK INHIBITORS” (SUN PHARMACEEUTICAL INDUSTRIES, INC., priority 2021, published 2024).

For data set [1], the system named is patients suffering from alopecia areata. As to conditions: human clinical trials, at certain doses; cited from earlier work.
A short description of data set [2]: In vitro conversion of Compound (I-1d) DBTA salt to CTP-543 under conditions similar to human stomach (0.1N HCl, 37° C.), HPLC analysis. The format is physicochemical. The following applies: for CTP-543 Concentration: 28.5 mg DBTA salt in 250 mL. The procedure:
An in vitro study was conducted to test the conversion of the dibenzoyl-D-tartaric acid (DBTA) salt of Compound (I-1d) (a compound of Formula (I)) to CTP-543 (a compound of Formula (III)) when subjected to biologically-relevant conditions similar to human stomach conditions (0.1N hydrochloric acid, 37° C.).
Study Conditions: At 37° C., 28.5 mg of Compound (I-1d)·DBTA salt (equivalent to 14.6 mg of Compound (I-1d)) was added to 250 mL of 0.1N HCl while stirring. Samples were removed via syringe at 30, 60, 120 and 240 minutes, (times relevant to potential human gastric residence time), then were filtered through a syringe filter and analyzed by HPLC.

With `[2H]C1([2H])C([C@@H](CC#N)n2cc(-c3ncnc4[nH]ccc34)cn2)C([2H])([2H])C([2H])([2H])C1([2H])[2H]` [CTP-543, (R)-3-(4-(7H-pyrrolo[2,3-d]pyrimidin-4-yl)-1H-pyrazol-1-yl)-3-(cyclopentyl-2,2,3,3,4,4,5,5-d8)propanenitrile], in data set [1], the “Hair growth in patients suffering from alopecia areata” value is “shown to stimulate hair growth”.

As to `[2H]C1([2H])C([C@@H](CC#N)n2cc(-c3ncnc(N)c3CC(OC)OC)cn2)C([2H])([2H])C([2H])([2H])C1([2H])[2H]` [Compound (I-1d)], the “% Conversion to CTP-543” value is reported as 8% in data set [2] (30 min), 10% in data set [2] (60 min), 16% in data set [2] (120 min) and 22% in data set [2] (240 min). Also, the “CTP-543 Concentration” value in data set [2] (30 min) is on record as 0.004 mg/mL; in data set [2] (60 min), 0.005 mg/mL; in data set [2] (120 min) it was 0.008 mg/mL; in data set [2] (240 min), 0.011 mg/mL.
